ChEMBL document CHEMBL5338806, “Rationally Designed Nonapeptides with Great Skin Photoprotective Effect through Producing Type 1 Collagen and Blocking the mTOR Pathway” (J Med Chem, 2023)
Activity calls are given as the source filed them. The calls are words filed in the database; no cut-off is given here. Where a SMILES comes first, the peptide text is derived from it.

Experiments:
HEK293 = experiment: Activation of COL1a2 transcriptional activity in HEK293 cells by dual-luciferase reporter assay; assay type: functional, cell-based; conditions: Homo sapiens
[1] = Antioxidant activity assessed as ABTS radical scavenging activity at 80 ug/mL incubated for 10 mins by absorbance based assay; assay type: functional; conditions: dose 80.0 µg/ml
[2] = Antioxidant activity assessed as ROS scavenging activity; assay type: functional
[3] = Antioxidant activity assessed as DPPH radical scavenging activity by measuring eradication rate at 80 ug/mL incubated for 30 mins by absorbance based assay relative to control; assay type: functional; conditions: dose 80.0 µg/ml
Mus musculus [4] = experiment: Protection against UV radiation-stress induced skin damage in Kunming mouse model assessed as repair of broken skin at 20 ug/ml administered topically and measured every 2 days for 10 days; assay type: functional, organism-based; conditions: dose 20.0 µg/ml, route top, time 10.0 day
HFF-1 [5] = experiment: Cytotoxicity against HFF-1 cells upto 160 ug/mL incubated for 24 hrs by MTT assay; assay type: toxicity, cell-based; conditions: human, hff-1, 24 h, up to 160 µg/mL
Mus musculus [6] = experiment: In vivo anti-skin aging activity against UV-induced SIPS Kunming mouse model assessed as restoration of skin elasticity at 100 ug/ml administered topically for 5 weeks in presence of propylene glycol; assay type: functional, organism-based; conditions: dose 100.0 µg/ml, route top
[7] = target: Nuclear factor NF-kappa-B complex (Homo sapiens) (UniProt Q00653+P19838+Q04206); experiment: Inhibition of NF-kappaB activation in HFF-1 cells assessed as suppression of UV-A-induced IkappaBalpha degradation at 5 to 25 ug/mL pretreated with compound for 24 hrs followed by 10.8 J/cm^2 UV-A irradiation by Western blot analysis; assay type: cell-based; conditions: dose 5-25 µg/ml
Sequence of Nuclear factor NF-kappa-B complex (Homo sapiens) (P19838 whole entry, looked up): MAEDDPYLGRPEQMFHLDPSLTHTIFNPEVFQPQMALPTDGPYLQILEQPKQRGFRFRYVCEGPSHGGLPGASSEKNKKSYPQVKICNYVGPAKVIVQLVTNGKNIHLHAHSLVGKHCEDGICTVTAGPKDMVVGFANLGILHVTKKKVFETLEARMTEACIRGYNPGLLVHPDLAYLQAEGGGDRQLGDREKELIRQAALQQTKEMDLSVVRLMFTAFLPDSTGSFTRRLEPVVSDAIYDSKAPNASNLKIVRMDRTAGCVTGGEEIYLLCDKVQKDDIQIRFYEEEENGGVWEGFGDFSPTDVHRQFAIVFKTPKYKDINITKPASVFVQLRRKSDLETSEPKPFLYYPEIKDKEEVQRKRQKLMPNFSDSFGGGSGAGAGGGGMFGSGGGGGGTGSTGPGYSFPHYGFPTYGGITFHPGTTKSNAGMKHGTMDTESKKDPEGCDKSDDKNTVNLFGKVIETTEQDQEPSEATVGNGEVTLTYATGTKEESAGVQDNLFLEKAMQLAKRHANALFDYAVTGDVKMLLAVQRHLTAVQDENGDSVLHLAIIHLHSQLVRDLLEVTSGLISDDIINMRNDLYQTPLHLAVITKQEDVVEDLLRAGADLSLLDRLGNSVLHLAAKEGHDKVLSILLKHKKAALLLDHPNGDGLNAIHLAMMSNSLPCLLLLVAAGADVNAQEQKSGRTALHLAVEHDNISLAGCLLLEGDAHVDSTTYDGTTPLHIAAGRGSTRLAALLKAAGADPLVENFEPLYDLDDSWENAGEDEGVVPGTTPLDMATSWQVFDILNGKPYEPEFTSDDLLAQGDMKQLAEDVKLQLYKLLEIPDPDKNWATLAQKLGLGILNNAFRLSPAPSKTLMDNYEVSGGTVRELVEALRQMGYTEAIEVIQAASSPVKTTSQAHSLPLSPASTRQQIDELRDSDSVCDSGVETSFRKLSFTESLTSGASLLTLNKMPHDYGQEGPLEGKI
Sequence of Nuclear factor NF-kappa-B complex (Homo sapiens) (Q00653 whole entry, looked up): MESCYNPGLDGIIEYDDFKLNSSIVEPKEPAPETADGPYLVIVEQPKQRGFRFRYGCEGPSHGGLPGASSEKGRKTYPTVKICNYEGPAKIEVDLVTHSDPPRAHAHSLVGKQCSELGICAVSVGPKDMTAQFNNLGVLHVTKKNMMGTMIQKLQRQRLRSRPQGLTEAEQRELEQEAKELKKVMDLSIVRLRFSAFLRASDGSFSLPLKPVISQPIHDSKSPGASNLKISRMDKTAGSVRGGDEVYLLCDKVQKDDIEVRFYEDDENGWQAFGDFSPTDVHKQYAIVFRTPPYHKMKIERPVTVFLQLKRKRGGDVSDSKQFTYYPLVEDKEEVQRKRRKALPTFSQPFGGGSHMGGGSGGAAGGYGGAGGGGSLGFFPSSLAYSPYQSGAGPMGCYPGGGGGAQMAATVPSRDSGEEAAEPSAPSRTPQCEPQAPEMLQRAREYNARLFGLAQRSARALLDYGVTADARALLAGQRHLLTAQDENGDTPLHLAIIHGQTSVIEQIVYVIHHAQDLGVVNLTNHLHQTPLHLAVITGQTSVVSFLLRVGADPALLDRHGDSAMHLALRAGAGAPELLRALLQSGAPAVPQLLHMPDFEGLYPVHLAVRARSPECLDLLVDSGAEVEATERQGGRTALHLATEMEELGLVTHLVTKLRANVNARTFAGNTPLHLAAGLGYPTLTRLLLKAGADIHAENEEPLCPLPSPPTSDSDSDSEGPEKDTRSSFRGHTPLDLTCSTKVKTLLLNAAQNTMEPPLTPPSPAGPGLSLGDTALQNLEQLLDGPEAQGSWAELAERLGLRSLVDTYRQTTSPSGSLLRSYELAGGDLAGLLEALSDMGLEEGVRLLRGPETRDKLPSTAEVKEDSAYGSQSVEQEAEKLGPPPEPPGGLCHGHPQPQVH
Sequence of Nuclear factor NF-kappa-B complex (Homo sapiens) (Q04206 whole entry, looked up): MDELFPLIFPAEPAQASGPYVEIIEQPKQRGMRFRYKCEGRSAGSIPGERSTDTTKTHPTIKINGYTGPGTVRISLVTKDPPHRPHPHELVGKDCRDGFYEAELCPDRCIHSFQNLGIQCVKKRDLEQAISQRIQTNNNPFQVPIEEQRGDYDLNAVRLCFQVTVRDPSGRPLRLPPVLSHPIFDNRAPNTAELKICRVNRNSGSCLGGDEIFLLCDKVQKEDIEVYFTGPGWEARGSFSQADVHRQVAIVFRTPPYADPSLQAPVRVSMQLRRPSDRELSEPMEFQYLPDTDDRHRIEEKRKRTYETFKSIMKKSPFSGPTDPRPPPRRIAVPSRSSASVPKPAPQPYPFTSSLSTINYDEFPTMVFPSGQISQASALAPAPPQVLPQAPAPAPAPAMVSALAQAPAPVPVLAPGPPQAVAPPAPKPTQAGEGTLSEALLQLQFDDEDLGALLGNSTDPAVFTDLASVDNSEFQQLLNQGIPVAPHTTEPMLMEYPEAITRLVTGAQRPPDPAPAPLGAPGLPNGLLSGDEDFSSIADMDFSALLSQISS

[8] = target: Ribosomal protein S6 kinase (Homo sapiens) (UniProt P51812+Q9UBS0+O75676+Q15349+O75582+P23443+Q9UK32+Q15418); experiment: Inhibition of H2O2-induced S6K phosphorylation in HFF-1 cells at 5 to 25 ug/mL pretreated with compound for 24 hrs followed by H2O2 exposure for 2 hrs by Western blot analysis; assay type: cell-based; conditions: dose 5-25 µg/ml, time 26.0 hrs
[9] = Antioxidant activity assessed as ABTS radical scavenging activity in presence of 400 mM NaCl; assay type: functional
HFF-1 [10] = experiment: Antioxidant activity against UV-A-induced SIPS HFF-1 cell model assessed as recovery of CAT level at 5 to 25 ug/mL pretreated with compound followed by 10.8 J/cm^2 UV-A irradiation; assay type: functional, cell-based; conditions: Homo sapiens, dose 5-25 µg/ml
HFF-1 [11] = experiment: Induction of autophagy in H2O2-induced SIPS HFF-1 cell model assessed as ratio of LC3BII/LC3BI levels at 5 to 25 ug/mL pretreated with compound for 24 hrs followed by H2O2 exposure for 2 hrs by Western blot analysis; assay type: functional, cell-based; conditions: Homo sapiens, dose 5-25 µg/ml, time 26.0 hrs
HFF-1 [12] = experiment: Protection against H2O2-induced SIPS HFF-1 cell model assessed as reduction in cell senescence at 5 to 25 ug/mL pretreated for 24 hrs followed by irritation with H2O2 for 2 hrs by SA-beta-Gal staining assay; assay type: functional, cell-based; conditions: Homo sapiens, dose 5-25 µg/ml, time 26.0 hrs
[13] = Toxicity in Wistar rat mast cell assessed as cell degranulation by measuring beta-hexosaminidase release at 40 ug/mL incubated for 15 mins by fluorescence based analysis (reference value: 20.13 +/- 1.40 %); conditions: 0.25 h, at 40 µg/mL
[14] = Toxicity in Wistar rat mast cell assessed as cell degranulation by measuring beta-hexosaminidase release at 160 ug/mL incubated for 15 mins by fluorescence based analysis (reference value: 20.13 +/- 1.40 %); conditions: 0.25 h, at 160 µg/mL
HFF-1 [15] = experiment: Upregulation of COL-1 expression in UV-A-induced SIPS HFF-1 cell model pretreated with compound for 24 hrs followed by 10.8 J/cm^2 UV-A irradiation by Western blot analysis; assay type: functional, cell-based; conditions: Homo sapiens, dose 5-25 µg/ml
HFF-1 [16] = experiment: Inhibition of H2O2-induced AKT phosphorylation in HFF-1 cells at 5 to 25 ug/mL pretreated with compound for 24 hrs followed by H2O2 exposure for 2 hrs by Western blot analysis; assay type: cell-based; conditions: Homo sapiens, dose 5-25 µg/ml, time 26.0 hrs
[17] = Antioxidant activity assessed as ABTS radical scavenging activity in presence of 50 mM NaCl; assay type: functional
HFF-1 [18] = experiment: Induction of autophagy in H2O2-induced SIPS HFF-1 cell model assessed as phosphorylated AMPK expression at 5 to 25 ug/mL pretreated with compound for 24 hrs followed by H2O2 exposure for 2 hrs by Western blot analysis; assay type: functional, cell-based; conditions: Homo sapiens, dose 5-25 µg/ml, time 26.0 hrs
Mus musculus [19] = experiment: In vivo anti-skin aging activity against UV-induced SIPS Kunming mouse model assessed as upregulation of skin elasticity at 100 ug/ml administered topically and measured for 10 weeks in presence of propylene glycol; assay type: functional, organism-based; conditions: dose 100.0 µg/ml, route top
HFF-1 [20] = experiment: Inhibition of H2O2-stimulated IL-6 production in SIPS HFF-1 cell model pre-incubated with compound for 12 hrs followed by H2O2 stimulation for 60 mins by ELISA method; assay type: functional, cell-based; conditions: Homo sapiens, dose 5-25 µg/ml, time 13.0 hrs
HFF-1 [21] = experiment: Inhibition of intracellular ROS level in UV-A-induced SIPS HFF-1 cell model assessed as reduction in ROS level pretreated with compound for 24 hrs followed by 10.8 J/cm^2 UV-A irritation incubated for 30 mins under dark condition by DCFH-DA staining based flow cytometry analysis; assay type: functional; conditions: Homo sapiens, dose 5-50 µg/ml, time 24.5 hrs
HFF-1 [22] = experiment: Antioxidant activity against UV-A-induced SIPS HFF-1 cell model assessed as recovery of SOD level at 5 to 25 ug/mL pretreated with compound followed by 10.8 J/cm^2 UV-A irradiation; assay type: functional, cell-based; conditions: Homo sapiens, dose 5-25 µg/ml
[23] = Stability of compound in human serum assessed as protease mediated degradation at 2 mg/mL incubated for 24 hrs by RP-HPLC analysis; assay type: ADME, cell-free
HFF-1 [24] = experiment: Protection against UV-A/H2O2-stress induced premature senescence HFF-1 cell model assessed as cell migration by measuring cellular repair activity at 10 ug/mL upto 24 hrs by inverted microscopic based cell scratch assay; assay type: functional; conditions: Homo sapiens, dose 10.0 µg/ml
Mus musculus [25] = experiment: In vivo anti-skin aging activity against UV-induced SIPS Kunming mouse model assessed as prevention of wrinkle and erythema formation at 100 ug/ml administered topically and measured for 10 weeks in presence of propylene glycol by macroscopic analysis; assay type: functional, organism-based; conditions: dose 100.0 µg/ml, route top
HFF-1 [26] = experiment: Inhibition of H2O2-induced AKT activation in HFF-1 cells assessed as downregulation of mTOR phosphorylation at 5 to 25 ug/mL pretreated with compound for 24 hrs followed by H2O2 exposure for 2 hrs by Western blot analysis; assay type: cell-based; conditions: Homo sapiens, dose 5-25 µg/ml, time 26.0 hrs
[27] = Toxicity in Wistar rat mast cell assessed as cell degranulation by measuring increase in beta-hexosaminidase release at 160 ug/mL incubated for 15 mins by fluorescence based analysis (reference value: 0 +/- 1.40 %); conditions: 0.25 h, at 160 µg/mL
[28] = Thermal stability of compound by measuring retention of ABTS radical scavenging activity at 2 mg/mL at 37 degC for 96 hrs; assay type: physicochemical
Mus musculus [29] = experiment: In vivo anti-skin aging activity against UV-induced SIPS Kunming mouse model assessed as repair of wrinkled skin at 100 ug/ml administered topically for 5 weeks in presence of propylene glycol by macroscopic analysis; assay type: functional, organism-based; conditions: dose 100.0 µg/ml, route top
Mus musculus [30] = experiment: In vivo anti-skin aging activity against UV-induced SIPS Kunming mouse model assessed as restoration of dorsal skin thickness at 100 ug/ml administered topically for 5 weeks in presence of propylene glycol by caliper method; assay type: functional, organism-based; conditions: dose 100.0 µg/ml, route top
[31] = Toxicity in Wistar rat mast cell assessed as cell degranulation by measuring beta-hexosaminidase release at 10 ug/mL incubated for 15 mins by fluorescence based analysis (reference value: 20.13 +/- 1.40 %); conditions: 0.25 h, at 10 µg/mL
HFF-1 [32] = experiment: Inhibition of H2O2-stimulated TNF-alpha production in SIPS HFF-1 cell model pre-incubated with compound for 12 hrs followed by H2O2 stimulation for 60 mins by ELISA method; assay type: functional, cell-based; conditions: Homo sapiens, dose 5-25 µg/ml, time 13.0 hrs
HFF-1 [33] = experiment: Inhibition of H2O2-stimulated IL-1beta production in SIPS HFF-1 cell model pre-incubated with compound for 12 hrs followed by H2O2 stimulation for 60 mins by ELISA method; assay type: functional, cell-based; conditions: Homo sapiens, dose 5-25 µg/ml, time 13.0 hrs
HFF-1 [34] = experiment: Downregulation of MMP-1 expression in UV-A-induced SIPS HFF-1 cell model pretreated with compound for 24 hrs followed by 10.8 J/cm^2 UV-A irradiation by Western blot analysis; assay type: functional, cell-based; conditions: Homo sapiens, dose 5-25 µg/ml
Erythrocyte = experiment: Hemolytic activity in human erythrocytes assessed as release of hemoglobin at 10 to 160 ug/ml; assay type: toxicity, cell-based; conditions: dose 10-160 µg/ml
Mus musculus [35] = experiment: In vivo anti-skin aging activity against UV-induced SIPS Kunming mouse model assessed as increase in Skin-fold thickness of dorsal skin at 100 ug/ml administered topically and measured for 10 weeks in presence of propylene glycol by caliper method; assay type: functional, organism-based; conditions: dose 100.0 µg/ml, route top
HFF-1 [36] = experiment: Induction of autophagy in H2O2-induced SIPS HFF-1 cell model assessed as beclin-1 expression at 5 to 25 ug/mL pretreated with compound for 24 hrs followed by H2O2 exposure for 2 hrs by Western blot analysis; assay type: functional, cell-based; conditions: Homo sapiens, dose 5-25 µg/ml, time 26.0 hrs
[37] = Toxicity in Wistar rat mast cell assessed as cell degranulation by measuring increase in beta-hexosaminidase release at 10 ug/mL incubated for 15 mins by fluorescence based analysis (reference value: 0 +/- 1.40 %); conditions: 0.25 h, at 10 µg/mL
HFF-1 [38] = experiment: Induction of autophagy in H2O2-induced SIPS HFF-1 cell model assessed as p62 expression at 5 to 25 ug/mL pretreated with compound for 24 hrs followed by H2O2 exposure for 2 hrs by Western blot analysis; assay type: functional, cell-based; conditions: Homo sapiens, dose 5-25 µg/ml, time 26.0 hrs
HFF-1 [39] = experiment: Induction of HFF-1 cell migration at 10 ug/mL measured for 2 to 8 hrs by transwell migration assay; assay type: functional, cell-based; conditions: Homo sapiens, dose 10.0 µg/ml, time 2-8 hrs
HFF-1 [40] = experiment: Restoration of H2O2-induced mitochondrial membrane potential damage in SIPS HFF-1 cell model at 5 to 25 ug/mL incubated for 20 mins by JC-1 staining based fluorescence microscopic analysis; assay type: functional; conditions: Homo sapiens, dose 5-25 µg/ml
[41] = Toxicity in Wistar rat mast cell assessed as cell degranulation by measuring increase in beta-hexosaminidase release at 40 ug/mL incubated for 15 mins by fluorescence based analysis (reference value: 0 +/- 1.40 %); conditions: 0.25 h, at 40 µg/mL

SMILES: CC(C)[C@H](N)C(=O)N[C@H](C(=O)N[C@@H](CS)C(=O)N1CCC[C@H]1C(=O)N[C@@H](CCCCN)C(=O)O)C(C)C (H-VVCPK-OH)
- Activity (HEK293): Active
- Activity [1]: Active
- Activity [2]: Active

SMILES: CC(C)[C@H](N)C(=O)N[C@H](C(=O)N[C@@H](CCCCN)C(=O)N[C@@H](CS)C(=O)N1CCC[C@H]1C(=O)N[C@@H](CCCCN)C(=O)O)C(C)C (H-VVKCPK-OH)
- Activity (HEK293): Active
- Activity [3]: 85.4%
- Activity (Mus musculus [4]): Active
- Activity [2]: Active

SMILES: CC(C)[C@H](N)C(=O)N[C@H](C(=O)N1CCC[C@H]1C(=O)N1CCC[C@H]1C(=O)N[C@@H](CS)C(=O)N[C@@H](CCCCN)C(=O)O)C(C)C (H-VVPPCK-OH)
- Activity (HFF-1 [5]): 2.84%
- Activity [2]: Active

SMILES: CC(C)[C@H](N)C(=O)N[C@H](C(=O)N1CCC[C@H]1C(=O)N[C@H](C(=O)N[C@H](C(=O)N[C@H](C(=O)N[C@@H](CS)C(=O)N1CCC[C@H]1C(=O)N[C@@H](CCCCN)C(=O)O)C(C)C)C(C)C)[C@@H](C)O)C(C)C (H-VVPTVVCPK-OH)
- Activity (HFF-1 [5]): 5.14%
- Activity (Mus musculus [6]): Active
- Activity [7]: Active
- inhibition [8]: Active
- Activity [9]: Active
- Activity (HEK293): Active
- Activity (HFF-1 [10]): Active
- Activity (HFF-1 [11]): Active
- Activity (HFF-1 [12]): Active
- Activity [13]: 23.14%
- Activity [14]: 26.03%
- Activity (HFF-1 [15]): Dose-Dependent Effect
- inhibition (HFF-1 [16]): Active
- Activity [17]: Active
- Activity (HFF-1 [18]): Active
- Activity (Mus musculus [19]): Active
- inhibition (HFF-1 [20]): Dose-Dependent Effect
- inhibition (HFF-1 [21]): Dose-Dependent Effect
- Activity (HFF-1 [22]): Active
- Stability [23]: Stable
- Activity (HFF-1 [24]): Active
- Activity (Mus musculus [25]): Active
- inhibition (HFF-1 [26]): Active
- Activity [27]: 5.9%
- Activity [28]: Active
- Activity (Mus musculus [29]): Active
- Activity (Mus musculus [30]): Active
- Activity [31]: 21.4%
- Activity (Mus musculus [4]): Active
- inhibition (HFF-1 [32]): Dose-Dependent Effect
- inhibition (HFF-1 [33]): Dose-Dependent Effect
- Activity (HFF-1 [34]): Dose-Dependent Effect
- Activity (Erythrocyte): Non-Toxic
- Activity (Mus musculus [35]): Active
- Activity (HFF-1 [36]): Active
- Activity [37]: 1.27%
- Activity (HFF-1 [38]): Active
- Activity (HFF-1 [39]): Active
- Activity (HFF-1 [40]): Active
- Activity [2]: Active
- Activity [41]: 3.01%
